Experimental data published in patent US5596002A, “Method of treating chloroquine-resistant malaria with aminoquinoline derivatives” (Hoffmann-La Roche Inc., priority 1993, dated 1997).
Values after ≈ are worked out from the molar mass of the structure shown.

Tests used:
Assay type in all cases: cell-based
[1] = test system: Plasmodium falciparum, chloroquine-resistant strain Indo; assay: activity against P. falciparum in vitro, strain Indo; settings: chloroquine-resistant strain Indo, 48 h-72 h, read-out: IC50 (50% growth inhibition)
Description: (§1) Test method for the determination of the activity against P. falciparum in vitro
(§2) The preparations of the present invention were tested on intraerythrocytary stages of P. falciparum from asynchronous cultures according to the method of Desjardin et al. (Desjardins, R. E. et al: Quantitative assessment of antimalarial activity in vitro by a semiautomated microdilution technique. Antimicrob. Agents Chemother. 16, 710-718, (1979)).
(§3) The culture medium consisted of RPMI 1640 with the addition of 25 mM HEPES, 25 mM NaHCO3, […] neomycin and 10% human serum (A^+). Human-A^+ erythrocytes were used as the P. falciparum host cells. The parasites were maintained at 37° C. in an atmosphere of 3% O2, 4% CO2, 93% N2 and at 95% relative humidity.
(§4) In order to determine the activity, the preparations were dissolved in DMSO, pre-diluted in the culture medium to a suitable starting concentration and subsequently titrated-out into microtitre plates in the 2nd stage over 6-7 steps. After the addition of the parasite culture (0.7% parasitemia in 2.5% erythrocyte suspension), the test plates were incubated under the conditions given above for 48 h-72 h. The parasite growth in the different preparation concentrations was determined using [G-^3 H]-hypoxanthin incorporation compared to untreated control cultures on the same test plates. The 50% growth inhibition (IC50) was calculated according to logit regression analysis from the resulting dosage-activity curve.
(§5) The preparations were tested on at least one chloroquine-resistant and one chloroquine-sensitive P. falciparum strain. Additional sensitive and resistant strains were also included for further characterization.
(§6) Table 1 below contains the IC50 values measured in vitro for the growth inhibition of chloroquine-sensitive and chloroquine-resistant strains of the human pathogenic Plasmodium falciparum.

[2] = test system: Plasmodium falciparum, chloroquine-resistant strain 7G8; assay: activity against P. falciparum in vitro, strain 7G8; settings: chloroquine-resistant strain 7G8, 48 h-72 h, read-out: IC50 (50% growth inhibition)
Description: as §1, §2, §3, §4, §5, §6

[3] = test system: Plasmodium falciparum, chloroquine-sensitive strain HB3; assay: activity against P. falciparum in vitro, strain HB3; settings: chloroquine-sensitive strain HB3, 48 h-72 h, read-out: IC50 (50% growth inhibition)
Description: as §1, §2, §3, §4, §5, §6

[4] = test system: Plasmodium falciparum, chloroquine-resistant strain ItG2 F6; assay: activity against P. falciparum in vitro, strain ItG2 F6; settings: chloroquine-resistant strain ItG2 F6, 48 h-72 h, read-out: IC50 (50% growth inhibition)
Description: as §1, §2, §3, §4, §5, §6

[5] = test system: Plasmodium falciparum, chloroquine-resistant strain K1; assay: activity against P. falciparum in vitro, strain K1; settings: Plasmodium falciparum; chloroquine-resistant strain K1; 48 h-72 h; read-out: IC50 (50% growth inhibition)
Description: as §1, §2, §3, §4, §5, §6

[6] = test system: Plasmodium falciparum, chloroquine-resistant strain W2 Mef; assay: activity against P. falciparum in vitro, strain W2 Mef; settings: 48 h-72 h, read-out: IC50 (50% growth inhibition)
Description: as §1, §2, §3, §4, §5, §6

[7] = test system: Plasmodium falciparum, chloroquine-sensitive strain NF54; assay: activity against P. falciparum in vitro, strain NF54; settings: Plasmodium falciparum; chloroquine-sensitive strain NF54; 48 h-72 h; read-out: IC50 (50% growth inhibition)
Description: as §1, §2, §3, §4, §5, §6

[8] = test system: Plasmodium falciparum, chloroquine-resistant strain W2; assay: activity against P. falciparum in vitro, strain W2; settings: chloroquine-resistant strain W2, 48 h-72 h, read-out: IC50 (50% growth inhibition)
Description: as §1, §2, §3, §4, §5, §6

[9] = test system: Plasmodium falciparum, chloroquine-sensitive strain RFMEF3; assay: activity against P. falciparum in vitro, strain RFMEF3; settings: chloroquine-sensitive strain RFMEF3, 48 h-72 h, read-out: IC50 (50% growth inhibition)
Description: as §1, §2, §3, §4, §5, §6

[10] = test system: Plasmodium falciparum, chloroquine-resistant strain RFCR3; assay: activity against P. falciparum in vitro, strain RFCR3; settings: chloroquine-resistant strain RFCR3, 48 h-72 h, read-out: IC50 (50% growth inhibition)
Description: as §1, §2, §3, §4, §5, §6

[11] = test system: Plasmodium falciparum, chloroquine-sensitive strain Ro7 3; assay: activity against P. falciparum in vitro, strain Ro7 3; settings: chloroquine-sensitive strain Ro7 3, 48 h-72 h, read-out: IC50 (50% growth inhibition)
Description: as §1, §2, §3, §4, §5, §6

[12] = test system: Plasmodium falciparum, chloroquine-sensitive strain FCH5C2; assay: activity against P. falciparum in vitro, strain FCH5C2; settings: chloroquine-sensitive strain FCH5C2, 48 h-72 h, read-out: IC50 (50% growth inhibition)
Description: as §1, §2, §3, §4, §5, §6

SMILES	IC50 [1]	IC50 [2]	IC50 [3]	IC50 [4]	IC50 [5]	IC50 [6]	IC50 [7]	IC50 [8]	IC50 [9]	IC50 [10]	IC50 [11]	IC50 [12]
CCN1CCCC1CNc1ccnc2cc(Cl)ccc12 (stereo not drawn) [Example 12, (7-Chloro-quinolin-4-yl)-(1-ethyl-pyrrolidin-2-yl-methyl)-amine]	0.012 µg/mL (≈ 0.0414 µM)	0.015 µg/mL (≈ 0.0518 µM)	7 ng/mL (≈ 0.0242 µM)	8 ng/mL (≈ 0.0276 µM)	0.01 µg/mL (≈ 0.0345 µM)	0.009 µg/mL (≈ 0.0311 µM)	6 ng/mL (≈ 0.0207 µM)	0.015 µg/mL (≈ 0.0518 µM)	8 ng/mL (≈ 0.0276 µM)	0.015 µg/mL (≈ 0.0518 µM)	7 ng/mL (≈ 0.0242 µM)	9 ng/mL (≈ 0.0311 µM)
CC(C)(CN1CCCC1)Nc1ccnc2cc(Cl)ccc12 [Example 13, (7-Chloro-quinolin-4-yl)-(1,1-dimethyl-2-pyrrolidin-1-yl-ethyl)-amine]	0.04 µg/mL (≈ 0.132 µM)	0.039 µg/mL (≈ 0.128 µM)	38 ng/mL (≈ 0.125 µM)	25 ng/mL (≈ 0.0823 µM)	0.047 µg/mL (≈ 0.155 µM)	0.041 µg/mL (≈ 0.135 µM)	30 ng/mL (≈ 0.0987 µM)	0.034 µg/mL (≈ 0.112 µM)	27 ng/mL (≈ 0.0889 µM)	0.058 µg/mL (≈ 0.191 µM)	30 ng/mL (≈ 0.0987 µM)	28 ng/mL (≈ 0.0922 µM)
CC(C)(CN1CCCCC1)Nc1ccnc2cc(Cl)ccc12 [Example 14, (7-Chloro-quinolin-4-yl)-(1,1-dimethyl-2-piperidin-1-yl-ethyl)-amine]	0.01 µg/mL (≈ 0.0315 µM)	0.007 µg/mL (≈ 0.022 µM)	9 ng/mL (≈ 0.0283 µM)	6 ng/mL (≈ 0.0189 µM)	0.021 µg/mL (≈ 0.0661 µM)	0.014 µg/mL (≈ 0.044 µM)	9 ng/mL (≈ 0.0283 µM)	0.02 µg/mL (≈ 0.0629 µM)	6 ng/mL (≈ 0.0189 µM)	0.008 µg/mL (≈ 0.0252 µM)	4 ng/mL (≈ 0.0126 µM)	8 ng/mL (≈ 0.0252 µM)
CN(C)CCNc1ccnc2cc(C(F)(F)F)ccc12 [Example 22, N1,N1 -Dimethyl-N2-(7trifluoromethyl-quinolin-4-yl)-ethane-1,2-diamine]	0.016 µg/mL (≈ 0.0565 µM)	0.029 µg/mL (≈ 0.102 µM)	20 ng/mL (≈ 0.0706 µM)	14 ng/mL (≈ 0.0494 µM)	0.022 µg/mL (≈ 0.0777 µM)	0.023 µg/mL (≈ 0.0812 µM)	14 ng/mL (≈ 0.0494 µM)	0.011 µg/mL (≈ 0.0388 µM)	18 ng/mL (≈ 0.0635 µM)	0.02 µg/mL (≈ 0.0706 µM)	11 ng/mL (≈ 0.0388 µM)	17 ng/mL (≈ 0.06 µM)
CC1CCN(CCNc2ccnc3cc(Cl)ccc23)CC1 [Example 24, (7-Chloro-quinolin-4-yl)-[2-(4-methyl-piperidin-1-yl)-ethyl]-amine]	0.008 µg/mL (≈ 0.0263 µM)	0.007 µg/mL (≈ 0.023 µM)	7 ng/mL (≈ 0.023 µM)	6 ng/mL (≈ 0.0197 µM)	0.015 µg/mL (≈ 0.0494 µM)	0.009 µg/mL (≈ 0.0296 µM)	7 ng/mL (≈ 0.023 µM)	0.015 µg/mL (≈ 0.0494 µM)	7 ng/mL (≈ 0.023 µM)	0.009 µg/mL (≈ 0.0296 µM)	4 ng/mL (≈ 0.0132 µM)	7 ng/mL (≈ 0.023 µM)
CC1(C)CCCN(CCNc2ccnc3cc(Cl)ccc23)C1 [Example 25, (7-Chloro-quinolin-4-yl)-[2-(3,3-dimethyl-piperidin-1-yl)-ethyl]-amine]	0.015 µg/mL (≈ 0.0472 µM)	0.011 µg/mL (≈ 0.0346 µM)	10 ng/mL (≈ 0.0315 µM)	8 ng/mL (≈ 0.0252 µM)	0.022 µg/mL (≈ 0.0692 µM)	0.016 µg/mL (≈ 0.0503 µM)	8 ng/mL (≈ 0.0252 µM)	0.026 µg/mL (≈ 0.0818 µM)	8 ng/mL (≈ 0.0252 µM)	0.014 µg/mL (≈ 0.044 µM)	5 ng/mL (≈ 0.0157 µM)	8 ng/mL (≈ 0.0252 µM)
C[C@@H]1CCC[C@H](C)N1CCNc1ccnc2cc(Cl)ccc12 [Example 28, (2R,6S)-(7-Chloro-quinolin-4-yl)-[2-(2,6-dimethyl-piperidin-1-yl)-ethyl]-amine]	0.009 µg/mL (≈ 0.0283 µM)	0.009 µg/mL (≈ 0.0283 µM)	11 ng/mL (≈ 0.0346 µM)	6 ng/mL (≈ 0.0189 µM)	0.016 µg/mL (≈ 0.0503 µM)	0.015 µg/mL (≈ 0.0472 µM)	7 ng/mL (≈ 0.022 µM)	0.018 µg/mL (≈ 0.0566 µM)	9 ng/mL (≈ 0.0283 µM)	0.016 µg/mL (≈ 0.0503 µM)	5 ng/mL (≈ 0.0157 µM)	14 ng/mL (≈ 0.044 µM)
CC1CC(C)CN(CCNc2ccnc3cc(Cl)ccc23)C1 (stereo not drawn) [Example 29, (7-Chloro-quinolin-4-yl)-[2-(3,5-dimethyl-piperidin-1-yl)-ethyl]-amine]	0.007 µg/mL (≈ 0.022 µM)	0.005 µg/mL (≈ 0.0157 µM)	7 ng/mL (≈ 0.022 µM)	6 ng/mL (≈ 0.0189 µM)	0.016 µg/mL (≈ 0.0503 µM)	0.011 µg/mL (≈ 0.0346 µM)	6 ng/mL (≈ 0.0189 µM)	0.015 µg/mL (≈ 0.0472 µM)	5 ng/mL (≈ 0.0157 µM)	0.011 µg/mL (≈ 0.0346 µM)	3 ng/mL (≈ 0.00944 µM)	6 ng/mL (≈ 0.0189 µM)
CC1CCC(C)N1CCNc1ccnc2cc(Cl)ccc12 (stereo not drawn) [Example 30, (7-Chloro-quinolin-4-yl)-[2-(2,5-dimethyl-pyrrolidin-1-yl)-ethyl]-amine]	0.007 µg/mL (≈ 0.023 µM)	0.015 µg/mL (≈ 0.0494 µM)	10 ng/mL (≈ 0.0329 µM)	7 ng/mL (≈ 0.023 µM)	0.014 µg/mL (≈ 0.0461 µM)	0.008 µg/mL (≈ 0.0263 µM)	7 ng/mL (≈ 0.023 µM)	0.015 µg/mL (≈ 0.0494 µM)	8 ng/mL (≈ 0.0263 µM)	0.016 µg/mL (≈ 0.0527 µM)	11 ng/mL (≈ 0.0362 µM)	9 ng/mL (≈ 0.0296 µM)
Clc1ccc2c(NCCN3CCC4CCCCC43)ccnc2c1 (stereo not drawn) [Example 31]	0.007 µg/mL (≈ 0.0212 µM)	0.009 µg/mL (≈ 0.0273 µM)	5 ng/mL (≈ 0.0152 µM)	7 ng/mL (≈ 0.0212 µM)	0.011 µg/mL (≈ 0.0333 µM)	0.007 µg/mL (≈ 0.0212 µM)	5 ng/mL (≈ 0.0152 µM)	0.014 µg/mL (≈ 0.0424 µM)	6 ng/mL (≈ 0.0182 µM)	0.014 µg/mL (≈ 0.0424 µM)	5 ng/mL (≈ 0.0152 µM)	5 ng/mL (≈ 0.0152 µM)
Clc1ccc2c(NCCN3CC4CCC(CC4)C3)ccnc2c1 [Example 32]	0.015 µg/mL (≈ 0.0455 µM)	0.015 µg/mL (≈ 0.0455 µM)	9 ng/mL (≈ 0.0273 µM)	10 ng/mL (≈ 0.0303 µM)	0.016 µg/mL (≈ 0.0485 µM)	0.013 µg/mL (≈ 0.0394 µM)	7 ng/mL (≈ 0.0212 µM)	0.015 µg/mL (≈ 0.0455 µM)	8 ng/mL (≈ 0.0243 µM)	0.016 µg/mL (≈ 0.0485 µM)	7 ng/mL (≈ 0.0212 µM)	9 ng/mL (≈ 0.0273 µM)
